# Tests used:
# [1] = test system: Tetranychus urticae; assay: Tetranychus test, OP-resistant (bean plants); format: in vivo, greenhouse red spider mite (Tetranychus urticae); conditions: TETRUR, active compound conc. 4 ppm
# Experimental: (§1) Solvent: 7 parts by weight of dimethylformamide Emulsifier: 2 parts by weight of alkylaryl polyglycol ether To produce a suitable preparation of active compound, 1 part by weight of active compound is mixed with the stated amounts of solvent and emulsifier, and the concentrate is diluted with emulsifier-containing water to the desired concentration. If the addition of ammonium salts, penetrant or ammonium salts and penetrant is required, these are pipetted in at a concentration of 1000 ppm after dilution of the respective finished solution of the preparation. Bean plants (Phaseolus vulgaris) which are heavily infested by all stages of the greenhouse red spider mite (Tetranychus urticae) are treated by spraying with the active compound preparation of the desired concentration. After the desired period of time, the effect in % is determined. Here, 100% means that all of the spider mites have been killed; 0% means that none of the spider mites have been killed.
# [2] = test system: Myzus persicae; assay: Myzus persicae test MYZUPE (bell pepper plants); format: in vivo, green peach aphid (Myzus persicae)
# Experimental: as §1, with “Bell pepper” for “Bean”, “(Capsicum annuum)” for “(Phaseolus vulgaris)”, “by” for “by all stages of”, “green peach aphid (Myzus persicae)” for “greenhouse red spider mite (Tetranychus urticae)”, “kill” for “effect”, “animals” for “spider mites”
# [3] = test system: Aphis gossypii; assay: Aphis gossypii test, APHIGO spray treatment (cotton leaves); format: in vivo, cotton aphid (Aphis gossypii); conditions: active compound conc. 0.8 ppm
# Experimental: Solvent: 7 parts by weight of dimethylformamide Emulsifier: 2 parts by weight of alkylaryl polyglycol ether To produce a suitable preparation of active compound, 1 part by weight of active compound is mixed with the stated amounts of solvent and emulsifier, and the concentrate is diluted with emulsifier-containing water to the desired concentration. If the addition of ammonium salts, penetrant or ammonium salts and penetrant is required, these are pipetted in at a concentration of 1000 ppm after dilution of the respective finished solution of the preparation. Cotton leaves (Gossypium hirsutum) which are heavily infested by the cotton aphid (Aphis gossypii) are sprayed with an active compound preparation of the desired concentration. After the desired period of time, the kill in % is determined. Here, 100% means that all of the aphids have been killed; 0% means that none of the aphids have been killed.
# [4] = Penetration of active compounds through enzymatically isolated cuticles of apple leaves; format: in vitro ADME, apple trees of the Golden Delicious variety; conditions: apple leaf cuticles, 20° C., 60% rh, average of 8 to 10 measurements
# Source text: Boosting of penetration into the plant by ammonium salts or phosphonium salts, and synergistic boosting of penetration into the plant by ammonium/phosphonium salts in combination with penetration promoters This test measured the penetration of active compounds through enzymatically isolated cuticles of apple leaves. The leaves used were cut in the fully developed state from apple trees of the Golden Delicious variety. The cuticles were isolated as follows: • first of all, leaf discs labelled on the underside with dye and formed by punching were filled by means of vacuum infiltration with a pectinase solution (0.2% to 2% strength) buffered to a pH of between 3 and 4, • sodium azide was then added and • the leaf discs thus treated were left to stand until the original leaf structure broke down and the non-cellular cuticle underwent detachment. After that, only those cuticles from the top leaf sides that were free from stomata and hairs were used further. They were washed a number of times in alternation with water and with a buffer solution, pH 7. […] Penetration was determined by applying 10 μl of the spray liquor of the composition below to the outer side of each of the cuticles. […] At regular intervals, samples were taken using an autosampler, and the amount of active compound was determined using HPLC. […]
# [5] = test system: Aphis gossypii; assay: Example C-2: plot trial on cotton 'Fibermax' against Aphis gossypii; format: in vivo; conditions: 105 g a.i./ha, standard (SC 050)
# Experimental: In plots of a size of 10 m^2, cotton plants of the cultivar “Fibermax” are treated in three replications against Aphis gossypii using a pressure-operated knapsack sprayer (2.5 bar). Here, the active compound A.5 is applied as SC050 and SL050 at the stated application rate in a tank mix of 1 g/l of ammonium sulphate and 1 g/l of a.i. rapeseed oil methyl ester EW 500 in comparison to the standard imidacloprid (SC 050) using an application rate of 300 l of water/ha. Evaluation is carried out 3, 6, 9, 13 and 17 days after the application by counting the number of live animals on the leaves. Subsequently, the efficacy in percent is calculated according to Henderson and Tilton.
# [6] = test system: Tetranychus urticae; assay: Example C-3: plot trial on cotton 'Fibermax 977' against Tetranychus urticae; format: in vivo; conditions: 9 g a.i./ha, standard (EC 018), two applications 8 days apart
# Experimental: In plots of a size of 15 m^2, cotton plants of the cultivar “Fibermax 977” are treated in three replications against Tetranychus urticae using a pressure-operated knapsack sprayer (4 bar). Here, the active compound A.5 is applied as SC050 and SL050 at the stated application rate in a tank mix of 1 g/l of ammonium sulphate and 1 g/l of a.i. rapeseed oil methyl ester EW 500 and the standard abamectin (EC 018) using an application rate of in each case 300 l of water/ha. Two applications are carried out at an interval of 8 days. Evaluation is carried out 3, 7, 11 and 15 days after the first application by scoring the kill of the spider mites on the leaves.
molecule,measurement,setting,value
Cc1cc(C)c(C2=C(O)C3(CCC4(CC3)OCCO4)NC2=O)c(C)c1 [A.2],% effect after 7 d,[1],70%
same,% effect after 7 d,[2]; active compound conc. 0.8 ppm,90%
Cc1cc(C)c(C2=C(O)C3(CCC4(CC3)OCCO4)NC2=O)c(C)c1 [A.3],% effect after 7 d,[3],75%
same,% effect after 7 d,[2]; active compound conc. 0.8 ppm,75%
Cc1cc(Cl)cc(C)c1C1=C(O)C2(CCC3(CC2)OCCO3)NC1=O [A.4],% effect after 7 d,[2]; active compound conc. 10 ppm,100%
Cc1cc(Cl)cc(C)c1C1=C(O)C2(CCC3(CC2)OCCO3)NC1=O [A.6],% effect after 7 d,[2]; active compound conc. 10 ppm,95%
"Cc1cc(Cl)cc(C)c1C1C(=O)NC2(CCC3(CC2)OCCO3)C1=O (stereo not shown) [Ex. I-1-a-4, 8,8′-ethylenedioxy-3-[(2,6-dimethyl-4-chloro)-phenyl]-1-azaspiro[4,5]-decane-2,4-dione]",% effect after 7 d,[2]; active compound conc. 10 ppm,75%
Cc1cc(C)c(C2=C(O)C3(CCC4(CC3)OCCO4)NC2=O)c(C)c1.[K+] [Example A.1],% effect after 7 d,[2]; active compound conc. 0.8 ppm,75%
Cc1cc(Cl)cc(C)c1C1=C(O)C2(CCC3(CC2)OCCO3)NC1=O [Example A.5],Penetration after 24 h,[4]; SC 050 + RME (1 g/l) + AS (1 g/l),3%
same,Penetration after 24 h,[4]; SL 050 + RME (1 g/l) + AS (1 g/l),7%
O=[N+]([O-])NC1=NCCN1Cc1ccc(Cl)nc1 [imidacloprid],Efficacy (% H + T) Aphis gossypii 3 d,[5]; 3 d,78.1%
same,Efficacy (% H + T) Aphis gossypii 6 d,[5]; 6 d,84.1%
same,Efficacy (% H + T) Aphis gossypii 9 d,[5]; 9 d,83.7%
same,Efficacy (% H + T) Aphis gossypii 13 d,[5]; 13 d,82.0%
same,Efficacy (% H + T) Aphis gossypii 17 d,[5]; 17 d,64.7%
abamectin,Effect Abbott (%) Tetranychus urticae 3 d,[6]; 3 d after first application,49.3%
same,Effect Abbott (%) Tetranychus urticae 7 d,[6]; 7 d after first application,27.2%
same,Effect Abbott (%) Tetranychus urticae 11 d,[6]; 11 d after first application,5.8%
same,Effect Abbott (%) Tetranychus urticae 15 d,[6]; 15 d after first application,40.7%

# Reference: patent US20110086762A1, “4'4'-Dioxaspiro-Spirocyclically Substituted Tetramates” (Bayer CropScience AG, priority 2008, published 2011)
